Source: PubChem BioAssay (NCI)
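Exposure lasted 48 hours, with cells grown in 96-well plates and compounds tested at five concentrations. At the TGI there is no net growth.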

Assays:
Experiment in all cases: NCI tumour cell line growth inhibition, 48 h
[1] = system: PC-3 prostate
[2] = system: RXF 393 renal
[3] = system: UACC-257 melanoma
[4] = system: SF-295 CNS
[5] = system: NCI-H460 lung
[6] = system: SK-OV-3 ovarian
[7] = system: SNB-75 CNS
[8] = system: UO-31 renal
[9] = system: SF-268 CNS
[10] = system: EKVX NSCLC
[11] = system: MOLT-4 leukemia
[12] = system: NCI-H226 lung
[13] = system: CCRF-CEM leukemia
[14] = system: MALME-3M melanoma
[15] = system: DU-145 prostate
[16] = system: NCI-H522 lung
[17] = system: LOX IMVI melanoma
[18] = system: RPMI-8226 leukemia
[19] = system: SR leukemia
[20] = system: SK-MEL-2 melanoma
[21] = system: ACHN renal
[22] = system: NCI-H23 lung
[23] = system: OVCAR-8 ovarian
[24] = system: MDA-MB-231 breast
[25] = system: HT29 colon
[26] = system: KM12 colon
[27] = system: MCF7 breast
[28] = system: 786-0 renal
[29] = system: SW-620 colon
[30] = system: SNB-19 CNS
[31] = system: HS 578T breast
[32] = system: SK-MEL-5 melanoma
[33] = system: T-47D breast
[34] = system: NCI/ADR-RES ovarian
[35] = system: BT-549 breast
[36] = system: UACC-62 melanoma
[37] = system: K-562 leukemia
[38] = system: OVCAR-5 ovarian
[39] = system: HOP-62 NSCLC
[40] = system: SK-MEL-28 melanoma
[41] = system: IGROV1 ovarian
[42] = system: HCT-15 colon
[43] = system: M14 melanoma
[44] = system: CAKI-1 renal
[45] = system: TK-10 renal
[46] = system: A549 NSCLC
[47] = system: OVCAR-4 ovarian
[48] = system: OVCAR-3 ovarian
[49] = system: HOP-92 NSCLC
[50] = system: HCT-116 colon
[51] = system: COLO 205 colon
[52] = system: HL-60(TB) leukemia
[53] = system: A498 renal
[54] = system: SN12C renal
[55] = system: SF-539 CNS
[56] = system: HCC-2998 colon
[57] = system: U251 CNS
[58] = system: MDA-MB-435

In the case of `CCCc1cn2c(/C=N/N=C(N)N)c(-c3c(OC)ccc(OC)c3[N+](=O)[O-])nc2s1`, the TGI [1] is reported as 26.5 µM, the TGI [2] is reported as 41.2 µM and the TGI [3] is reported as 28.4 µM. It also gave a TGI [4] of 35.7 µM, a TGI [5] of 41.6 µM and a TGI [6] of 43.3 µM. For the same molecule, the TGI [7] was > 59.1 µM, the TGI [8] was 45 µM and the TGI [9] was 47.2 µM. It also gave a TGI [10] of 44.8 µM, a TGI [11] of 4.19 µM and a TGI [12] of 38.3 µM. For the same molecule, the TGI [13] was 8.43 µM, the TGI [14] was 30 µM and the TGI [15] was 35.6 µM. For the same molecule, the TGI [16] was 34.2 µM, the TGI [17] was 9.13 µM and the TGI [18] was 8.7 µM. The TGI [19] was 4.34 µM, the TGI [20] was 46.5 µM and the TGI [21] was 35.6 µM. For the same molecule, the TGI [22] was 26.1 µM, the TGI [23] was 47.3 µM and the TGI [24] was 16.2 µM. The TGI [25] was > 38.5 µM, the TGI [26] was 11.6 µM and the TGI [27] was 20.8 µM. It also gave a TGI [28] of 28.1 µM, a TGI [29] of 32.9 µM and a TGI [30] of 49.9 µM. The TGI [31] was 41.9 µM, the TGI [32] was 32.3 µM and the TGI [33] was 24.3 µM. It also gave a TGI [34] of 64.6 µM, a TGI [35] of 35.6 µM and a TGI [36] of 25.4 µM. For the same molecule, the TGI [37] was 11.5 µM, the TGI [38] was 34.5 µM and the TGI [39] was 31.1 µM. For the same molecule, the TGI [40] was 19.4 µM, the TGI [41] was 34.8 µM and the TGI [42] was 37 µM. The TGI [43] was 21.3 µM, the TGI [44] was 30.6 µM and the TGI [45] was 41 µM. The TGI [46] was 51.3 µM, the TGI [47] was 66.2 µM and the TGI [48] was 18.2 µM. It also gave a TGI [49] of 47 µM, a TGI [50] of 22.2 µM and a TGI [51] of 6.42 µM. For the same molecule, the TGI [52] was 27.6 µM, the TGI [53] was 44.6 µM and the TGI [54] was 31.7 µM. The TGI [55] was 36.9 µM, the TGI [56] was 4.59 µM and the TGI [57] was 18.7 µM. The TGI [58] was 19.9 µM.

In the case of `Nc1cccc(CCN2CCN(CCCc3ccccc3)CC2)c1`, the TGI [1] is reported as > 100 µM, the TGI [2] is reported as 52.2 µM and the TGI [3] is reported as 65.3 µM. For the same molecule, the TGI [4] was 70 µM, the TGI [5] was 71.4 µM and the TGI [6] was > 100 µM. The TGI [7] was > 100 µM, the TGI [8] was > 100 µM and the TGI [9] was > 100 µM. The TGI [10] was > 100 µM, the TGI [11] was > 100 µM and the TGI [12] was > 100 µM. The TGI [13] was > 100 µM, the TGI [14] was 38 µM and the TGI [15] was > 100 µM. For the same molecule, the TGI [16] was 30.1 µM, the TGI [17] was 33.1 µM and the TGI [18] was > 100 µM. The TGI [19] was 65.9 µM, the TGI [20] was > 100 µM and the TGI [21] was > 100 µM. The TGI [22] was > 100 µM, the TGI [23] was 63.2 µM and the TGI [24] was > 100 µM. It also gave a TGI [25] of 46.5 µM, a TGI [26] of 81.5 µM and a TGI [27] of 36.4 µM. For the same molecule, the TGI [28] was 37.4 µM, the TGI [29] was > 100 µM and the TGI [30] was > 100 µM. For the same molecule, the TGI [31] was > 100 µM, the TGI [32] was 34.3 µM and the TGI [33] was 52.6 µM. The TGI [34] was > 100 µM, the TGI [35] was > 100 µM and the TGI [36] was 52.7 µM. For the same molecule, the TGI [37] was > 100 µM, the TGI [38] was > 100 µM and the TGI [39] was > 100 µM. For the same molecule, the TGI [40] was 88.4 µM, the TGI [41] was > 100 µM and the TGI [42] was 38.2 µM. The TGI [43] was 32.3 µM, the TGI [44] was > 100 µM and the TGI [45] was > 100 µM. For the same molecule, the TGI [46] was > 100 µM, the TGI [47] was > 100 µM and the TGI [48] was 41.2 µM. The TGI [49] was 53.8 µM, the TGI [50] was 36.7 µM and the TGI [51] was 34.8 µM. The TGI [52] was > 100 µM, the TGI [53] was > 100 µM and the TGI [54] was > 100 µM. For the same molecule, the TGI [55] was 40.6 µM, the TGI [56] was 28.2 µM and the TGI [57] was > 100 µM. It also gave a TGI [58] of 36.9 µM.
